Test results from the supplement of paper PMC10307832.

What was measured:
Assay in all cases: relative viability (nuclei count vs DMSO), 5 days (fraction); higher = more cells survive
A-427 = system: A-427
In short: (§1)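 For relative viability, nuclei counts in treated wells were divided by those in vehicle wells. Lung cancer cell lines had been pin-tool dosed in 1536-well plates the day after seeding and cultured for 5 days, then fixed and stained in one step (final 0.05% Triton X-100, 1% formaldehyde, 1 ug/ml Hoechst) and imaged at 4×. Doses were one drug alone or a fixed anchor-drug dose plus five library-drug doses (not always all listed) in √10 steps, and values are duplicate-plate medians.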

ABC-1 = system: ABC-1
In short: as §1

CAL-12T = system: CAL-12T
In short: as §1

H3255 = system: H3255
In short: as §1

LCLC-103H = system: LCLC-103H
In short: as §1

LK-2 = system: LK-2
In short: as §1

NCI-H1355 = system: NCI-H1355
In short: as §1

NCI-H1395 = system: NCI-H1395
In short: as §1

NCI-H1563 = system: NCI-H1563
In short: as §1

NCI-H1651 = system: NCI-H1651
In short: as §1

NCI-H1666 = system: NCI-H1666
In short: as §1

NCI-H1792 = system: NCI-H1792
In short: as §1

NCI-H2085 = system: NCI-H2085
In short: as §1

NCI-H2087 = system: NCI-H2087
In short: as §1

NCI-H2228 = system: NCI-H2228
In short: as §1

NCI-H23 = system: NCI-H23
In short: as §1

NCI-H322M = system: NCI-H322M
In short: as §1

NCI-H358 = system: NCI-H358
In short: as §1

NCI-H661 = system: NCI-H661
In short: as §1

NCI-H838 = system: NCI-H838
In short: as §1

PC-14 = system: PC-14
In short: as §1

UMC-11 = system: UMC-11
In short: as §1

COCC1(CO)C(=O)C2CCN1CC2 (stereo unspecified) [PRIMA-1MET] + C[C@]1(O)C[C@@H](c2nc(-c3ccc4ccc(-c5ccccc5)nc4c3)c3c(N)nccn32)C1 [Linsitinib] (partner 1 µM)
relative viability (A-427; first compound 0.2 µM): 1.19
relative viability (A-427; first compound 0.6325 µM): 0.703
relative viability (A-427; first compound 2 µM): 0.953
relative viability (A-427; first compound 6.325 µM): 1.12
relative viability (A-427; first compound 20 µM): 1.08
relative viability (ABC-1; first compound 0.2 µM): 0.899
relative viability (ABC-1; first compound 0.6325 µM): 0.958
relative viability (ABC-1; first compound 2 µM): 0.89
relative viability (ABC-1; first compound 6.325 µM): 0.833
relative viability (ABC-1; first compound 20 µM): 0.519
relative viability (CAL-12T; first compound 0.2 µM): 0.725
relative viability (CAL-12T; first compound 0.6325 µM): 0.733
relative viability (CAL-12T; first compound 2 µM): 0.745
relative viability (CAL-12T; first compound 6.325 µM): 0.85
relative viability (CAL-12T; first compound 20 µM): 0.543
relative viability (H3255; first compound 0.2 µM): 1.13
relative viability (H3255; first compound 0.6325 µM): 1.01
relative viability (H3255; first compound 2 µM): 0.8
relative viability (H3255; first compound 6.325 µM): 1.01
relative viability (H3255; first compound 20 µM): 0.918
relative viability (LCLC-103H; first compound 0.2 µM): 1.24
relative viability (LCLC-103H; first compound 0.6325 µM): 0.956
relative viability (LCLC-103H; first compound 2 µM): 0.905
relative viability (LCLC-103H; first compound 6.325 µM): 1.12
relative viability (LCLC-103H; first compound 20 µM): 1.1
relative viability (LK-2; first compound 0.2 µM): 0.624
relative viability (LK-2; first compound 0.6325 µM): 0.554
relative viability (LK-2; first compound 2 µM): 0.237
relative viability (LK-2; first compound 6.325 µM): 0.224
relative viability (LK-2; first compound 20 µM): 0.103
relative viability (NCI-H1355; first compound 0.2 µM): 0.998
relative viability (NCI-H1355; first compound 0.6325 µM): 0.796
relative viability (NCI-H1355; first compound 2 µM): 0.68
relative viability (NCI-H1355; first compound 6.325 µM): 0.81
relative viability (NCI-H1355; first compound 20 µM): 0.76
relative viability (NCI-H1395; first compound 0.2 µM): 1.1
relative viability (NCI-H1395; first compound 0.6325 µM): 0.909
relative viability (NCI-H1395; first compound 2 µM): 0.958
relative viability (NCI-H1395; first compound 6.325 µM): 1.61
relative viability (NCI-H1395; first compound 20 µM): 0.859
relative viability (NCI-H1563; first compound 0.2 µM): 1.25
relative viability (NCI-H1563; first compound 0.6325 µM): 1.14
relative viability (NCI-H1563; first compound 2 µM): 1.15
relative viability (NCI-H1563; first compound 6.325 µM): 1.23
relative viability (NCI-H1563; first compound 20 µM): 0.368
relative viability (NCI-H1651; first compound 0.2 µM): 1.13
relative viability (NCI-H1651; first compound 0.6325 µM): 0.981
relative viability (NCI-H1651; first compound 2 µM): 0.907
relative viability (NCI-H1651; first compound 6.325 µM): 0.955
relative viability (NCI-H1651; first compound 20 µM): 0.839
relative viability (NCI-H1666; first compound 0.2 µM): 0.794
relative viability (NCI-H1666; first compound 0.6325 µM): 0.781
relative viability (NCI-H1666; first compound 2 µM): 0.833
relative viability (NCI-H1666; first compound 6.325 µM): 0.742
relative viability (NCI-H1666; first compound 20 µM): 0.134
relative viability (NCI-H1792; first compound 0.2 µM): 0.521
relative viability (NCI-H1792; first compound 0.6325 µM): 0.477
relative viability (NCI-H1792; first compound 2 µM): 0.368
relative viability (NCI-H1792; first compound 6.325 µM): 0.578
relative viability (NCI-H1792; first compound 20 µM): 0.53
relative viability (NCI-H2085; first compound 0.2 µM): 1
relative viability (NCI-H2085; first compound 0.6325 µM): 0.826
relative viability (NCI-H2085; first compound 2 µM): 0.866
relative viability (NCI-H2085; first compound 6.325 µM): 0.731
relative viability (NCI-H2085; first compound 20 µM): 0.287
relative viability (NCI-H2087; first compound 0.2 µM): 1.07
relative viability (NCI-H2087; first compound 0.6325 µM): 0.85
relative viability (NCI-H2087; first compound 2 µM): 0.875
relative viability (NCI-H2087; first compound 6.325 µM): 1.24
relative viability (NCI-H2087; first compound 20 µM): 0.691
relative viability (NCI-H2228; first compound 0.2 µM): 0.735
relative viability (NCI-H2228; first compound 0.6325 µM): 0.552
relative viability (NCI-H2228; first compound 2 µM): 0.602
relative viability (NCI-H2228; first compound 6.325 µM): 0.61
relative viability (NCI-H2228; first compound 20 µM): 0.046
relative viability (NCI-H23; first compound 0.2 µM): 0.692
relative viability (NCI-H23; first compound 0.6325 µM): 0.443
relative viability (NCI-H23; first compound 2 µM): 0.419
relative viability (NCI-H23; first compound 6.325 µM): 0.416
relative viability (NCI-H23; first compound 20 µM): 0.113
relative viability (NCI-H322M; first compound 0.2 µM): 0.932
relative viability (NCI-H322M; first compound 6.325 µM): 0.942
relative viability (NCI-H322M; first compound 20 µM): 0.862
relative viability (NCI-H358; first compound 0.2 µM): 0.97
relative viability (NCI-H358; first compound 0.6325 µM): 0.399
relative viability (NCI-H358; first compound 6.325 µM): 0.757
relative viability (NCI-H358; first compound 20 µM): 0.0326
relative viability (NCI-H661; first compound 0.2 µM): 0.561
relative viability (NCI-H661; first compound 0.6325 µM): 0.507
relative viability (NCI-H661; first compound 6.325 µM): 0.532
relative viability (NCI-H661; first compound 20 µM): 0.283
relative viability (NCI-H838; first compound 0.2 µM): 1.21
relative viability (NCI-H838; first compound 0.6325 µM): 1.02
relative viability (NCI-H838; first compound 2 µM): 1.04
relative viability (NCI-H838; first compound 6.325 µM): 1.14
relative viability (NCI-H838; first compound 20 µM): 1.06
relative viability (PC-14; first compound 0.2 µM): 0.918
relative viability (PC-14; first compound 0.6325 µM): 0.978
relative viability (PC-14; first compound 2 µM): 0.923
relative viability (PC-14; first compound 6.325 µM): 0.987
relative viability (PC-14; first compound 20 µM): 0.927
relative viability (UMC-11; first compound 0.2 µM): 1.11
relative viability (UMC-11; first compound 0.6325 µM): 0.887
relative viability (UMC-11; first compound 2 µM): 1.04
relative viability (UMC-11; first compound 6.325 µM): 0.97
relative viability (UMC-11; first compound 20 µM): 0.94
